# Test results: ChEMBL document CHEMBL1201862, “PubChem BioAssay data set” (2004)
# Calls of active or inactive are those of the source.
# Tests used:
# [1] = biological target: Luciferin 4-monooxygenase (Photinus pyralis, UniProt P08659); test: inhibition of purified Photinus pyralis luciferase – biochemical, luminescence, dose response (AID 1891)
# [2] = Luminescence Cell-Based Dose Confirmation HTS to Identify Inhibitors of Platelet Dense Granule Release. [Related pubchem assays: 1663 (Primary HTS), 1678 (Summary of Project)]; format: functional
# [3] = biological target: T1, Microphthalmia-associated transcription factor (Homo sapiens, UniProt O75030); test: reducers of TRPM1 reporter luminescence, concentration series – cell-based, SK-MEL-5, cherry-picked, set 3, MITF inhibitor project, dose response (AID 493073); format: functional;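 also: SK-MEL-5 melanoma cells with luciferase driven by the MITF target TRPM1 promoter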
# T1 sequence (O75030 whole entry): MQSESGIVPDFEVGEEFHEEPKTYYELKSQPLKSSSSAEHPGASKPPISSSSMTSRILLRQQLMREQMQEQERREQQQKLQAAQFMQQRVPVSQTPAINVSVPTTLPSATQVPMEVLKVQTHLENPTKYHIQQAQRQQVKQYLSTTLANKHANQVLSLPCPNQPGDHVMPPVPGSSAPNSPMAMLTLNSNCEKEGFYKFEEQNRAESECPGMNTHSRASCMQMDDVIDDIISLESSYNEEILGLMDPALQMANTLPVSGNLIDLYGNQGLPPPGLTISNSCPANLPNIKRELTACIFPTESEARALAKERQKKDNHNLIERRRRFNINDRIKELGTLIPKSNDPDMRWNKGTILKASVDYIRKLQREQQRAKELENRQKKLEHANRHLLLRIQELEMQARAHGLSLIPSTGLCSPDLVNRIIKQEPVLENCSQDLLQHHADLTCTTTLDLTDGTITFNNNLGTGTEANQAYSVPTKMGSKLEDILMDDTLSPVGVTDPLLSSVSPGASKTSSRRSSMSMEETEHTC
# [4] = blockers of bursicon-stimulated LGR2 cAMP reporter – cell-based, HEK293, CRE-luciferase reporter, cherry pick, set 2, dose response (AID 743343); format: functional;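 also: transfected cells were stimulated with diluted bursicon conditioned medium after compound addition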
# [5] = blockade of melanocortin 4 receptor signaling – cell-based, plate reader, cherry pick, counter-screen for LGR2 antagonist project, dose response (AID 743444); format: functional;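 also: transfected HEK 293 cells stimulated with alpha-MSH peptide; potency of inhibitors of the alpha-MSH evoked signal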
# [6] = viability loss in HEK293 cells – cell-based, plate reader, cherry-picked samples, cytotoxicity control, dose response (AID 743446); format: functional
# BJ [7] = test: BJ-TERT fibroblast viability loss – cell-based, RAS-independent, luminescence, dose response (AID 1933); format: functional; conditions: Homo sapiens
# BJ [8] = test: cells; format: functional, cell-based; conditions: Homo sapiens
# BJ [9] = test: BJ-TERT-LT-ST fibroblast viability loss – cell-based, RAS-independent, luminescence, dose response (AID 1935); format: functional; conditions: Homo sapiens;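 also: BJ fibroblasts immortalized with TERT plus LT and ST oncogenes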
# [10] = DRD fibroblast viability loss – cell-based, non-viral oncogenic, luminescence, dose response (AID 1934); format: functional; conditions: Homo sapiens
# [11] = biological target: T2, Replicative DNA helicase DnaB (Mycobacterium tuberculosis, UniProt P9WMR3); test: DnaB intein splicing inhibitors, dose response, biochemical, cell-free fluorescence (AID 449749); format: functional
# T2 sequence (P9WMR3 whole entry): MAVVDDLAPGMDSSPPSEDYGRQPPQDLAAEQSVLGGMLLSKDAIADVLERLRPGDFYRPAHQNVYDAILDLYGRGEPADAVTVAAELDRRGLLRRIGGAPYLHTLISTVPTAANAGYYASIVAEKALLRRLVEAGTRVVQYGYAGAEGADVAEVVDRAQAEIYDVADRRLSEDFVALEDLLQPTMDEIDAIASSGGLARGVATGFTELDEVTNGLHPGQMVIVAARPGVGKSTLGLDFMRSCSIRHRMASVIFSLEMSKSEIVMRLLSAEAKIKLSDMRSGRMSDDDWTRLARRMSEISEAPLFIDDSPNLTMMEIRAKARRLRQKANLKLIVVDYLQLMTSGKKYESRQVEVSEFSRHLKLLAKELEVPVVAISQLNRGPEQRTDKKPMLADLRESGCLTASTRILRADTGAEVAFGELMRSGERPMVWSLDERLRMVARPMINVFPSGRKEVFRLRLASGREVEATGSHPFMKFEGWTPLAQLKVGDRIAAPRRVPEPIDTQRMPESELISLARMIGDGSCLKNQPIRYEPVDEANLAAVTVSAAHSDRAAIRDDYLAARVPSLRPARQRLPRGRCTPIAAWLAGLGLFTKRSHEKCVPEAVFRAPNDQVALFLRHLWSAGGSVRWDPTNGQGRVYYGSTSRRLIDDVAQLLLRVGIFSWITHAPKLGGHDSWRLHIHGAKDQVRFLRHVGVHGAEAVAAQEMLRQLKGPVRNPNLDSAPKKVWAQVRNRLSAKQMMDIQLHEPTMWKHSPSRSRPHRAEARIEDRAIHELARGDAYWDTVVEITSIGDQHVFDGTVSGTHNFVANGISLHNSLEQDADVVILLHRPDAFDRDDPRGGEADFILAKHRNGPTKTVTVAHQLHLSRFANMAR
# Protein RecA = biological target: T3, Protein RecA (Mycobacterium tuberculosis, UniProt P9WHJ3); test: Fluorescence Cell-Free Homogeneous Dose Retest to Identify Inhibitors of RecA-Intein Splicing Activity. [Related pubchem assays (depositor defined):AID2097, AID2223, AID489010, AID492950]; format: functional
# T3 sequence (P9WHJ3 whole entry): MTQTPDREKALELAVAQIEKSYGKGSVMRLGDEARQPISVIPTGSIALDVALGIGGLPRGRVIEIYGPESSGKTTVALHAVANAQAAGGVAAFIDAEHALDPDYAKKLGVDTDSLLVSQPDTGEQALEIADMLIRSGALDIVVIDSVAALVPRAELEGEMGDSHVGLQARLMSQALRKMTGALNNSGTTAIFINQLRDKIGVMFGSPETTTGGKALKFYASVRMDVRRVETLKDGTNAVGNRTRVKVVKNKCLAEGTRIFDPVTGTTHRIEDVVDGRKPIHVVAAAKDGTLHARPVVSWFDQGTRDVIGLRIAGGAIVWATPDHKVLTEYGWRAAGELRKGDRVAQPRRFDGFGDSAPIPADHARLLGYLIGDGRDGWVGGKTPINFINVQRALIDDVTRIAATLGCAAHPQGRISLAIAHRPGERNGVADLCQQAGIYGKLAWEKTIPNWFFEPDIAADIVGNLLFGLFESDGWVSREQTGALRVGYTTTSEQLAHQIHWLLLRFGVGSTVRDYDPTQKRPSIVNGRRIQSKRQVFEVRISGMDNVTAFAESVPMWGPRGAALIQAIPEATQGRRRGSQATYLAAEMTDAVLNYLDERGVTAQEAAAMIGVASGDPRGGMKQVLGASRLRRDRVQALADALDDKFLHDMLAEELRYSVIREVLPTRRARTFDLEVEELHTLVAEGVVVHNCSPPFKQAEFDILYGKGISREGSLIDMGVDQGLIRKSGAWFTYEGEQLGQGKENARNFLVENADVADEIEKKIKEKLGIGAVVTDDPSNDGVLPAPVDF
# [12] = A549 cell cytotoxicity, dose response, cytotoxicity control, plate reader, cherry-pick, antagonist series (AID 743412); format: functional, cell-based
# [13] = toxicity toward HepG2 liver cells – cell-based, plate reader, cherry-pick, antagonist series, cytotoxicity control, dose response (AID 743416); format: functional
# Cytochrome P450 1A2 = biological target: T4, Cytochrome P450 1A2 (Homo sapiens, UniProt P05177);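 also: PubChem cytochrome P450 panel assay, CYP1A2 panel member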
# T4 sequence (P05177 whole entry): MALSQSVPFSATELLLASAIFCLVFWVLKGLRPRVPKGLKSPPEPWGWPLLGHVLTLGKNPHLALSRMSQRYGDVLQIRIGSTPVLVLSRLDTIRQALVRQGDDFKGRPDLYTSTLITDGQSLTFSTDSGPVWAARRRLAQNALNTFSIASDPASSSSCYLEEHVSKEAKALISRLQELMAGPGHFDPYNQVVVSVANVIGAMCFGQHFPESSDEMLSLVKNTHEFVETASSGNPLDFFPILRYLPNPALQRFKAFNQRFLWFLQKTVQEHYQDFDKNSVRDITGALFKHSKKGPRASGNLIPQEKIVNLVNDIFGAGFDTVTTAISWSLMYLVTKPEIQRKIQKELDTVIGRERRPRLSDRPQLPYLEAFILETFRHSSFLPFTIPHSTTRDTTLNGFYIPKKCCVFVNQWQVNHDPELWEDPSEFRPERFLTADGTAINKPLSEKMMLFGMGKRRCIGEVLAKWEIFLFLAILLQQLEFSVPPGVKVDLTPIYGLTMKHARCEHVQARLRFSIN
# Caspase-6 = biological target: T5, Caspase-6 (Homo sapiens, UniProt P55212); test: inhibition of CASP6 peptide cleavage – biochemical, VEID-R110 fluorescence, cherry-pick, dose response (AID 720632)
# T5 sequence (P55212 whole entry): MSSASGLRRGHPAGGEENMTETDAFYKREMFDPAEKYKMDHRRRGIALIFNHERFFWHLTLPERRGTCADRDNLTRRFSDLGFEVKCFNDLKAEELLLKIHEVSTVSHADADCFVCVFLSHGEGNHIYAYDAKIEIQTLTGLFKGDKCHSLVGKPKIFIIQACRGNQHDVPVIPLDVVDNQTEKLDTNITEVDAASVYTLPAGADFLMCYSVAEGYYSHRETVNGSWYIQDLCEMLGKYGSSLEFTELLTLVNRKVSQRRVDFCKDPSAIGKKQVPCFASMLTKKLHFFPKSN
# [14] = biological target: T6, Histone-lysine N-methyltransferase NSD2 (Homo sapiens, UniProt O96028); format: biochemical
# T6 sequence (O96028 whole entry): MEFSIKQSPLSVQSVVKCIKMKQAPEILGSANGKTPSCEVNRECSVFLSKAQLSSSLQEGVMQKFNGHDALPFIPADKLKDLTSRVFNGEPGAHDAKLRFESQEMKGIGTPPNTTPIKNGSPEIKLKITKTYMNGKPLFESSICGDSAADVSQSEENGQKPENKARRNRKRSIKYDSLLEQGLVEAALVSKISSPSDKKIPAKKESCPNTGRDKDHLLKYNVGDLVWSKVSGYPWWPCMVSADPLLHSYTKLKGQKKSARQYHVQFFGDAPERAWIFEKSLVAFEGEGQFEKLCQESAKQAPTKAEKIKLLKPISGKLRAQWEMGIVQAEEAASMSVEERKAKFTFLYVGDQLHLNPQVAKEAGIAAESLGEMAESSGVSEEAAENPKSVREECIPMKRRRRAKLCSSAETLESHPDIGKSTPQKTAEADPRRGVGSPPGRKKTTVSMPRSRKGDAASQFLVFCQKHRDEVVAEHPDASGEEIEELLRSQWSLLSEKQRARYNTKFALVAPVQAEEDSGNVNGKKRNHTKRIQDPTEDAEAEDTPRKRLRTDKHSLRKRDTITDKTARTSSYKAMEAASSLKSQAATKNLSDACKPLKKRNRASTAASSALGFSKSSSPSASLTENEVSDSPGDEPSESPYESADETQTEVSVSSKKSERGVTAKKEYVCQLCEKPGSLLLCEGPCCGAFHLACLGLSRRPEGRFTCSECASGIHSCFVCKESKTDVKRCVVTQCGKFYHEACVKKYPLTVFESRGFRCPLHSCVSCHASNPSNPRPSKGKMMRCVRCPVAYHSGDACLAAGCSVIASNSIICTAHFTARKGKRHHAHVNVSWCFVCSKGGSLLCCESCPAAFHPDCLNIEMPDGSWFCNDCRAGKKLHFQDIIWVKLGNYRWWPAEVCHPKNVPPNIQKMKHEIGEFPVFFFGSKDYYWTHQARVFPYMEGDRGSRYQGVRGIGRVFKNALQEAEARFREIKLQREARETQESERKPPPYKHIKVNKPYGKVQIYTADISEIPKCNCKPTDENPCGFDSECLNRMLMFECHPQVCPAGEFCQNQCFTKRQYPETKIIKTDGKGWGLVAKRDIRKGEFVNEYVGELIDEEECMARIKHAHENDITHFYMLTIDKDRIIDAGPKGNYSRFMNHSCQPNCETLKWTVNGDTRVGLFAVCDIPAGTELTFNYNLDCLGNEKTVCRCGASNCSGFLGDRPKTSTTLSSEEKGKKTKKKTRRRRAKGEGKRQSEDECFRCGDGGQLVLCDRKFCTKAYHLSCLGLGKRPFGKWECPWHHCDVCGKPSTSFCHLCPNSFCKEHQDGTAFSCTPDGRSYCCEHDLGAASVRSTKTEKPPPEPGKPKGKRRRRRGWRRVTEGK
# [15] = biological target: T7, Tyrosyl-DNA phosphodiesterase 2 (Homo sapiens, UniProt O95551); test: potency against TDP2 phosphodiesterase activity – biochemical, epi absorbance, IC50, dose response (AID 743297)
# T7 sequence (O95551 whole entry): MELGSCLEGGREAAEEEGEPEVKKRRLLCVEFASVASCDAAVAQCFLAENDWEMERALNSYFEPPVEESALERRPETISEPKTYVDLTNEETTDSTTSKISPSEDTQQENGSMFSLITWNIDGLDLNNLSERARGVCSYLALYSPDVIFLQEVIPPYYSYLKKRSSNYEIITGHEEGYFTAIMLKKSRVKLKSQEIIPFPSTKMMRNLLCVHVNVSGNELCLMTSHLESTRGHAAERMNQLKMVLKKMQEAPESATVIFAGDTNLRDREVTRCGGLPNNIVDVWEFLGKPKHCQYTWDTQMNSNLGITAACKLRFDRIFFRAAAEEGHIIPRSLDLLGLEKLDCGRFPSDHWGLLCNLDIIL
# Luciferin 4-monooxygenase, sequence (P08659 whole entry): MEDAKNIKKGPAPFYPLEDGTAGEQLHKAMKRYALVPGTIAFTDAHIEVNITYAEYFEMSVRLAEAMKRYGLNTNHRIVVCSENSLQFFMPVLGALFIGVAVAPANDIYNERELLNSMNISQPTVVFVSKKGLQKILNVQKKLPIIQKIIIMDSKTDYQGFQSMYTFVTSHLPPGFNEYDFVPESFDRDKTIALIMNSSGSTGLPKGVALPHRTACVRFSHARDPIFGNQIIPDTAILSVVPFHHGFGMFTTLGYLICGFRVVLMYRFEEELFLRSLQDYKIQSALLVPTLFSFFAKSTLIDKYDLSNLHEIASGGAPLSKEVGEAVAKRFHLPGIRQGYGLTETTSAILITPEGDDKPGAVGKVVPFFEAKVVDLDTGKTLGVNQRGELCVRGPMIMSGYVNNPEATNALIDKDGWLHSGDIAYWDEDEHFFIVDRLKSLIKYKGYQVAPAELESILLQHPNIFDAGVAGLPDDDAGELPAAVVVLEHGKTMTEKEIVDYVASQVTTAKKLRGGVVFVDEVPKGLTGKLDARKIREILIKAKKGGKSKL
SMILES,EC50 [1],EC50 [2],AC50 [3],AC50 [4],AC50 [5],AC50 [6],EC50 (BJ [7]),EC50 (BJ [8]),EC50 (BJ [9]),EC50 [10],AC50 [11],EC50 (Protein RecA),AC50 [12],AC50 [13],AC50 (Cytochrome P450 1A2),AC50 (Caspase-6),AC50 [14],IC50 [15]
COc1cc(SC)ccc1C(=O)Nc1ncc(C)s1,8.16 µM (active),11.6 µM (active),3.65 µM (active),1 µM (active),1.01 µM (active),> 52 µM (inactive),,,,,,,,,,,,
O=[N+]([O-])c1ccc(Sc2nnnn2-c2ccccc2)nc1,,,,14.9 µM (active),17.6 µM (active),12.5 µM (active),6.26 µM (active),63.6 µM (inconclusive),> 150 µM (inconclusive),9.86 µM (active),14.5 µM (active),5.61 µM (active),18.5 µM (active),15.7 µM (active),,,,
Cc1cccc(Cn2ncc(Cl)c(Cl)c2=O)c1,,,,,,17.4 µM (active),,,,,27.5 µM (active),6.04 µM (active),30 µM (active),37.3 µM (active),22.4 µM (inconclusive),,,
Cc1cnc(C2OCCO2)c2cccc(N)c12,,,,,,,,,,,,,,,,26.2 µM (active),18.5 µM (active),> 129 µM (inactive)
